Data reported in patent US12708616B2, “Compositions and methods of treating age-related retinal dysfunction” (THE REGENTS OF THE UNIVERSITY OF CALIFORNIA, priority 2020, dated 2026).
“Also recorded” adds a separate entry of the source.

Columns and labels:
HDACs 2, 4, 10, and 11 = conditions: cited from earlier work
HDACs 6 and 7 = conditions: cited from earlier work
other HDACs = conditions: cited from earlier work
HDAC11 = target: T1, HDAC11 (Homo sapiens, UniProt Q96DB2); conditions: mammalian HDAC11; cited from earlier work
T1 sequence (Q96DB2 1-347): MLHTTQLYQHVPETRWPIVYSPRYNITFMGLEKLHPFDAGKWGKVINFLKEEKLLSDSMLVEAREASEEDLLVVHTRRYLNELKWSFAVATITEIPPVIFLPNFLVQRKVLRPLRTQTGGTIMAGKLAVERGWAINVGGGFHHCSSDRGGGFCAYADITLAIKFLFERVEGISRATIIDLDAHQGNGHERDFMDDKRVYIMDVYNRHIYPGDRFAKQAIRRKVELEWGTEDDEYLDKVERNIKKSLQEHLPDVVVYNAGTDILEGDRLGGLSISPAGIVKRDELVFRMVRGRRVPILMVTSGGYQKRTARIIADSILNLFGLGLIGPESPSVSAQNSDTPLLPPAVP

[1] = test system: HDAC11 substrate, serine hydroxymethyl transferase 2; conditions: cited from earlier work
H3K9me3 [2] = test: Immunohistochemistry of H3K9me3 in retinal cross-sections of photobleached dKO mice; assay type: in vivo, mouse; conditions: 60 mg/kg bw intraperitoneal, 1 d after photobleaching, vs DMSO vehicle
Excerpt: (§1) Male and female Abca4^−/−Rdh8^−/− mice at 6 to 8 weeks of age were used for the current study. These mice were maintained on a pigmented C57BL/6 background, and age-matched C57BL/6 mice from The Jackson Laboratory were used as wild-type controls. All mice were housed and maintained in a 12-hour light (≤150 lux)/12-hour dark cyclic environment in the University Laboratory Animal Resources center at the University of California, Irvine (UCI) School of Medicine. Bright light-induced retinal damage was generated by exposing photosensitive Abca4^−/−Rdh8^−/− mice to white light delivered at 10,000 lux (150-W spiral lamp, Commercial Electric, Cleveland, OH) for 30 min. Mice were dark-adapted 24 h prior to photobleaching, and pupils were dilated with 1% ophthalmic tropicamide 30 min prior to light exposure. […] All animal handling procedures and experimental protocols were approved by the Institutional Animal Care and Use Committee at UCI and conformed to recommendations of both the American Veterinary Medical Association (AVMA) Panel on Euthanasia and the Association for Research in Vision and Ophthalmology.
Mice were euthanized in a CO2 chamber prior to enucleation. […] Fluorescence microscopy images were obtained on a Keyence BZ-X810 fluorescent microscope.

[3] = test system: Abca4−/−Rdh8−/− (dKO) mice; test: SLO and OCT imaging of bright light-induced retinal damage; assay type: in vivo, mouse; conditions: 60 mg/kg bw intraperitoneal, 7 d after photobleaching
Excerpt: Male and female Abca4^−/−Rdh8^−/− mice at 6 to 8 weeks of age were used for the current study. These mice were maintained on a pigmented C57BL/6 background, and age-matched C57BL/6 mice from The Jackson Laboratory were used as wild-type controls. All mice were housed and maintained in a 12-hour light (≤150 lux)/12-hour dark cyclic environment in the University Laboratory Animal Resources center at the University of California, Irvine (UCI) School of Medicine. Bright light-induced retinal damage was generated by exposing photosensitive Abca4^−/−Rdh8^−/− mice to white light delivered at 10,000 lux (150-W spiral lamp, Commercial Electric, Cleveland, OH) for 30 min. Mice were dark-adapted 24 h prior to photobleaching, and pupils were dilated with 1% ophthalmic tropicamide 30 min prior to light exposure. […]
Mice were anesthetized by intraperitoneal injection of ketamine (20 mg/mL) with xylazine (1.75 mg/mL) at a dose of 5 μL/g bw, and pupils were dilated with 1% tropicamide prior to imaging. […] For quantitative measurements of photoreceptor viability, ONL thickness was measured in the InVivoVue software at a distance of 0.45 mm from the optic nerve head in the temporal retina, where the most severe damage is found in bright light-exposed Abca4^−/−Rdh8^−/− mice. […]

H3K9me3 [4] = test: Quantitative Western blot of H3K9me3 (heterochromatin) in RPE/choroid of bleached dKO mice; assay type: in vivo, mouse; conditions: 60 mg/kg bw intraperitoneal 30 min prior to light exposure, 1 d post-bleach
Excerpt: as §1
(§2) Fresh retina and RPE were harvested from study mice as described previously. […] The blots were imaged, and IR signals were quantified using a LI-COR Odyssey Fc imaging system.

H3K27ac = test: Quantitative Western blot of H3K27ac (euchromatin) in retina of photobleached dKO mice; assay type: in vivo, mouse; conditions: 60 mg/kg bw intraperitoneal 30 min prior to light exposure, 1 d post-bleach
Excerpt: as §1, §2

HDAC4, 5, 6, 7, and 8 = conditions: cited from earlier work
HDAC = conditions: with exception for HDAC6; read-out: IC50 pan-HDAC; cited from earlier work

Structure (SMILES): Cn1cc(CNCC2CCN(c3ncc(C(=O)NO)cn3)CC2)c2ccccc21 [Quisinostat]
- Potency to HDACs 2, 4, 10, and 11 (HDACs 2, 4, 10, and 11): modest potent
- Potency to HDACs 6 and 7 (HDACs 6 and 7): lowest potency

Structure (SMILES): CCCCCCCCCCCCCCCCNNC(=O)c1cccs1 [SIS17]
- Inhibition of other HDACs (other HDACs): without inhibiting other HDACs
- IC50 (HDAC11): 830 nM
- Demyristoylation of serine hydroxymethyl transferase 2 [1]: inhibits the demyristoylation

Structure (SMILES): COc1cc(OC)c(-c2cn3ccc(N4CC[C@H](NCc5ccncc5)C4)cc3n2)cc1Cl [OTS186935, (S)-1-(2-(5-chloro-2,4-dimethoxyphenyl)imidazo[1,2-a]pyridin-7-yl)-N-(pyridin-4-ylmethyl)pyrrolidin-3-amine]
- H3K9me3 signal in retinal cross-sections (immunohistochemistry) (H3K9me3 [2]): attenuated
- Stress-induced retinal pathology by SLO and OCT (ONL thickness) [3]: sufficient to ameliorate stress-induced retinal pathology; also recorded: ameliorated
- Heterochromatin abundance (H3K9me3) in RPE/choroid (H3K9me3 [4]): attenuates the stress-induced increase in heterochromatin abundance

Structure (SMILES): Nc1ccccc1NC(=O)c1ccc(CNc2nccc(-c3cccnc3)n2)cc1 [Mocetinostat]
- Euchromatin abundance (H3K27ac) in retina (H3K27ac): rescues the stress-induced reduction in euchromatin abundance
- Stress-induced retinal pathology by SLO and OCT (ONL thickness) [3]: sufficient to ameliorate stress-induced retinal pathology; also recorded: ameliorated
- Activity to HDAC4, 5, 6, 7, and 8 (HDAC4, 5, 6, 7, and 8): no activity

Structure (SMILES): CCCCc1nc2cc(/C=C/C(=O)NO)ccc2n1CCN(CC)CC [Pracinostat]
- IC50 (HDAC): 40 to 140 nM
